Like-named read-outs stand apart in the source and are kept apart here.
Target: T1, IRAK4 (Homo sapiens, UniProt Q9NWZ3)
T1 construct: Degradation of IRAK4 in OCI-LY10 was quantitatively measured using Meso Scale Discovery technology; endogenous in cells; host or cells: OCI-LY10
T1 sequence (Q9NWZ3 1-460): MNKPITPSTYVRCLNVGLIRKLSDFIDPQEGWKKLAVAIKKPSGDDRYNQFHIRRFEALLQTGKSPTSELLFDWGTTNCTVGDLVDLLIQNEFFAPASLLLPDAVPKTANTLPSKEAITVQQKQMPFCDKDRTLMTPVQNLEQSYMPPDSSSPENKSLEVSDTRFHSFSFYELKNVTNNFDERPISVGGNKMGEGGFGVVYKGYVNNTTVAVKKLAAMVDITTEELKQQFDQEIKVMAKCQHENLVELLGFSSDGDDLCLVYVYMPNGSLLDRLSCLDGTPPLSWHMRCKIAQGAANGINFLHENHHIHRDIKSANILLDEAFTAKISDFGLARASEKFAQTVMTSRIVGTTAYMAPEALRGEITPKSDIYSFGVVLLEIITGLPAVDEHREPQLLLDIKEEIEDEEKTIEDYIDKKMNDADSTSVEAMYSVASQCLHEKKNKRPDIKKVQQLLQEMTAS
Assay: IRAK4 MSD Degradation in OCI-LY10
Type: cell-based
Conditions: OCI-LY10 cells, MSD
Method in brief: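 DC50, from a three-parameter logistic fit and reported as letter bins A (<0.01 μM), B, C, D (>0.2 μM or not tested), reflects IRAK4 loss measured by MSD electrochemiluminescence in OCI-LY10 lysates. Treatment: 8 doses, 1:3 steps, top 1 to 10 μM, 4 to 24 h, 37 °C.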

[1] = 4 hrs incubation, read-out: IRAK4 degradation in OCI-LY10 at 4 hrs: DC50
[2] = 24 hrs incubation, read-out: IRAK4 degradation in OCI-LY10 at 24 hrs: DC50

DC50 [1] | DC50 [2] | Compound
> 200 nM | 10 to 100 nM | CN(C[C@H]1CC[C@H](n2cc(NC(=O)c3cnn4ccc(N5CC6(COC6)C5)nc34)c(C(F)F)n2)CC1)C1CCN(c2cccc3c2n(C)c(=O)n3C2CCC(=O)NC2=O)CC1(F)F (stereo partly drawn) [I-509]
> 200 nM | 10 to 100 nM | CN(C[C@H]1CC[C@H](n2cc(NC(=O)c3cnn4ccc(N5CC6(CCCOC6)C5)nc34)c(C(F)F)n2)CC1)C1CCN(c2cccc3c2n(C)c(=O)n3C2CCC(=O)NC2=O)CC1(F)F (stereo partly drawn) [I-510]
> 200 nM | 10 to 100 nM | CN(C[C@H]1CC[C@H](n2cc(NC(=O)c3cnn4ccc(N5CC6(CCOCC6)C5)nc34)c(C(F)F)n2)CC1)C1CCN(c2cccc3c2n(C)c(=O)n3C2CCC(=O)NC2=O)CC1(F)F (stereo partly drawn) [I-511]
> 200 nM | 10 to 100 nM | CN(C[C@H]1CC[C@H](n2cc(NC(=O)c3cnn4ccc(N5CCCC5)nc34)c(C(F)F)n2)CC1)C1CCN(c2cccc3c2n(C)c(=O)n3C2CCC(=O)NC2=O)CC1(F)F (stereo partly drawn) [I-512]
> 200 nM | > 200 nM | CN(C[C@H]1CC[C@H](n2cc(NC(=O)c3cnn4ccc(N5CCCC5(C)C)nc34)c(C(F)F)n2)CC1)C1CCN(c2cccc3c2n(C)c(=O)n3C2CCC(=O)NC2=O)CC1(F)F (stereo partly drawn) [I-513]
> 200 nM | > 200 nM | CN(C[C@H]1CC[C@H](n2cc(NC(=O)c3cnn4ccc(N5CCCC56CC6)nc34)c(C(F)F)n2)CC1)C1CCN(c2cccc3c2n(C)c(=O)n3C2CCC(=O)NC2=O)CC1(F)F (stereo partly drawn) [I-514]
> 200 nM | 10 to 100 nM | CN(C[C@H]1CC[C@H](n2cc(NC(=O)c3cnn4ccc(N5CCCCC5)nc34)c(C(F)F)n2)CC1)C1CCN(c2cccc3c2n(C)c(=O)n3C2CCC(=O)NC2=O)CC1(F)F (stereo partly drawn) [I-515]
> 200 nM | > 200 nM | CN(C[C@H]1CC[C@H](n2cc(NC(=O)c3cnn4ccc(N5CCC(C)(C)CC5)nc34)c(C(F)F)n2)CC1)C1CCN(c2cccc3c2n(C)c(=O)n3C2CCC(=O)NC2=O)CC1(F)F (stereo partly drawn) [I-516]
> 200 nM | > 200 nM | CN(C[C@H]1CC[C@H](n2cc(NC(=O)c3cnn4ccc(N5CCCC(C)(C)C5)nc34)c(C(F)F)n2)CC1)C1CCN(c2cccc3c2n(C)c(=O)n3C2CCC(=O)NC2=O)CC1(F)F (stereo partly drawn) [I-517]
> 200 nM | > 200 nM | CN(C[C@H]1CC[C@H](n2cc(NC(=O)c3cnn4ccc(N5CCCCC5(C)C)nc34)c(C(F)F)n2)CC1)C1CCN(c2cccc3c2n(C)c(=O)n3C2CCC(=O)NC2=O)CC1(F)F (stereo partly drawn) [I-518]
> 200 nM | > 200 nM | CN(C[C@H]1CC[C@H](n2cc(NC(=O)c3cnn4ccc(N5CCC(F)(F)CC5)nc34)c(C(F)F)n2)CC1)C1CCN(c2cccc3c2n(C)c(=O)n3C2CCC(=O)NC2=O)CC1(F)F (stereo partly drawn) [I-519]
> 200 nM | > 200 nM | CC1CCN(c2ccn3ncc(C(=O)Nc4cn([C@H]5CC[C@H](CN(C)C6CCN(c7cccc8c7n(C)c(=O)n8C7CCC(=O)NC7=O)CC6(F)F)CC5)nc4C(F)F)c3n2)CC1 (stereo partly drawn) [I-520]
> 200 nM | > 200 nM | CN(C[C@H]1CC[C@H](n2cc(NC(=O)c3cnn4ccc(N5CCC6(CC5)CC6)nc34)c(C(F)F)n2)CC1)C1CCN(c2cccc3c2n(C)c(=O)n3C2CCC(=O)NC2=O)CC1(F)F (stereo partly drawn) [I-521]
> 200 nM | 10 to 100 nM | CN(C[C@H]1CC[C@H](n2cc(NC(=O)c3cnn4ccc(N5CCOCC5)nc34)c(C(F)F)n2)CC1)C1CCN(c2cccc3c2n(C)c(=O)n3C2CCC(=O)NC2=O)CC1(F)F (stereo partly drawn) [I-522]
> 200 nM | 10 to 100 nM | CN(C[C@H]1CC[C@H](n2cc(NC(=O)c3cnn4ccc(N5C[C@@H]6C[C@H]5CO6)nc34)c(C(F)F)n2)CC1)C1CCN(c2cccc3c2n(C)c(=O)n3C2CCC(=O)NC2=O)CC1(F)F (stereo partly drawn) [I-523]
> 200 nM | 10 to 100 nM | CN(C[C@H]1CC[C@H](n2cc(NC(=O)c3cnn4ccc(N5C6COCC5C6)nc34)c(C(F)F)n2)CC1)C1CCN(c2cccc3c2n(C)c(=O)n3C2CCC(=O)NC2=O)CC1(F)F (stereo partly drawn) [I-524]
> 200 nM | < 10 nM | CN(C[C@H]1CC[C@H](n2cc(NC(=O)c3cnn4ccc(N5CC6CC(C5)O6)nc34)c(C(F)F)n2)CC1)C1CCN(c2cccc3c2n(C)c(=O)n3C2CCC(=O)NC2=O)CC1(F)F (stereo partly drawn) [I-525]
> 200 nM | 10 to 100 nM | CN(C[C@H]1CC[C@H](n2cc(NC(=O)c3cnn4ccc(N5CC6CCC(C5)O6)nc34)c(C(F)F)n2)CC1)C1CCN(c2cccc3c2n(C)c(=O)n3C2CCC(=O)NC2=O)CC1(F)F (stereo partly drawn) [I-526]
> 200 nM | 10 to 100 nM | CN(C[C@H]1CC[C@H](n2cc(NC(=O)c3cnn4ccc(N5C6CCC5COC6)nc34)c(C(F)F)n2)CC1)C1CCN(c2cccc3c2n(C)c(=O)n3C2CCC(=O)NC2=O)CC1(F)F (stereo partly drawn) [I-527]
> 200 nM | 10 to 100 nM | C[C@H]1CN(c2ccn3ncc(C(=O)Nc4cn([C@H]5CC[C@H](CN(C)C6CCN(c7cccc8c7n(C)c(=O)n8C7CCC(=O)NC7=O)CC6(F)F)CC5)nc4C(F)F)c3n2)CCO1 (stereo partly drawn) [I-528]
> 200 nM | 10 to 100 nM | C[C@@H]1CN(c2ccn3ncc(C(=O)Nc4cn([C@H]5CC[C@H](CN(C)C6CCN(c7cccc8c7n(C)c(=O)n8C7CCC(=O)NC7=O)CC6(F)F)CC5)nc4C(F)F)c3n2)CCO1 (stereo partly drawn) [I-529]
> 200 nM | 10 to 100 nM | CN(C[C@H]1CC[C@H](n2cc(NC(=O)c3cnn4ccc(N5CCOC(C)(C)C5)nc34)c(C(F)F)n2)CC1)C1CCN(c2cccc3c2n(C)c(=O)n3C2CCC(=O)NC2=O)CC1(F)F (stereo partly drawn) [I-530]
> 200 nM | > 200 nM | CN(C[C@H]1CC[C@H](n2cc(NC(=O)c3cnn4ccc(N5CC(C)(C)OC(C)(C)C5)nc34)c(C(F)F)n2)CC1)C1CCN(c2cccc3c2n(C)c(=O)n3C2CCC(=O)NC2=O)CC1(F)F (stereo partly drawn) [I-531]
> 200 nM | > 200 nM | C[C@@H]1CN(c2ccn3ncc(C(=O)Nc4cn([C@H]5CC[C@H](CN(C)C6CCN(c7cccc8c7n(C)c(=O)n8C7CCC(=O)NC7=O)CC6(F)F)CC5)nc4C(F)F)c3n2)C[C@H](C)O1 (stereo partly drawn) [I-532]
> 200 nM | > 200 nM | C[C@H]1CN(c2ccn3ncc(C(=O)Nc4cn([C@H]5CC[C@H](CN(C)C6CCN(c7cccc8c7n(C)c(=O)n8C7CCC(=O)NC7=O)CC6(F)F)CC5)nc4C(F)F)c3n2)C[C@H](C)O1 (stereo partly drawn) [I-533]
> 200 nM | > 200 nM | CN(C[C@H]1CC[C@H](n2cc(NC(=O)c3cnn4ccc(N5CCO[C@@H](C(F)F)C5)nc34)c(C(F)F)n2)CC1)C1CCN(c2cccc3c2n(C)c(=O)n3C2CCC(=O)NC2=O)CC1(F)F (stereo partly drawn) [I-535]
> 200 nM | > 200 nM | CN(C[C@H]1CC[C@H](n2cc(NC(=O)c3cnn4ccc(N5CCO[C@H](C(F)F)C5)nc34)c(C(F)F)n2)CC1)C1CCN(c2cccc3c2n(C)c(=O)n3C2CCC(=O)NC2=O)CC1(F)F (stereo partly drawn) [I-536]
> 200 nM | > 200 nM | CN(C[C@H]1CC[C@H](n2cc(NC(=O)c3cnn4ccc(N5CCO[C@@H](C(F)(F)F)C5)nc34)c(C(F)F)n2)CC1)C1CCN(c2cccc3c2n(C)c(=O)n3C2CCC(=O)NC2=O)CC1(F)F (stereo partly drawn) [I-537]
> 200 nM | > 200 nM | CN(C[C@H]1CC[C@H](n2cc(NC(=O)c3cnn4ccc(N5CCO[C@H](C(F)(F)F)C5)nc34)c(C(F)F)n2)CC1)C1CCN(c2cccc3c2n(C)c(=O)n3C2CCC(=O)NC2=O)CC1(F)F (stereo partly drawn) [I-538]
> 200 nM | > 200 nM | CN(C[C@H]1CC[C@H](n2cc(NC(=O)c3cnn4ccc(N5CCOC6(CC6)C5)nc34)c(C(F)F)n2)CC1)C1CCN(c2cccc3c2n(C)c(=O)n3C2CCC(=O)NC2=O)CC1(F)F (stereo partly drawn) [I-539]

Source: patent US12091411B2, “IRAK degraders and uses thereof” (Kymera Therapeutics, Inc., priority 2022, dated 2024)
